Results from ChEMBL document CHEMBL1201861, “Genomics of Drug Sensitity in Cancer screening data, Wellcome Trust Sanger Institute”.

These molecules were tested on MLMA (assay: cells). Settings: Homo sapiens, MLMA.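 Further: growth inhibition of MLMA cells (human), determined through a cell viability readout.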
Assay type: functional, cell-based, Homo sapiens
Description: SANGER: Inhibition of human MLMA cell growth in a cell viability assay.
For `O=S(=O)(O)c1ccc2cc(/N=N/c3cc(S(=O)(=O)O)c4cccnc4c3O)ccc2c1`, the IC50 was > 16 µM.

These molecules were tested on HT (assay: cells). Settings: Homo sapiens, HT.
Assay type: functional, cell-based, Homo sapiens
Description: SANGER: Inhibition of human HT cell growth in a cell viability assay.
In the case of `O=S(=O)(O)c1ccc2cc(/N=N/c3cc(S(=O)(=O)O)c4cccnc4c3O)ccc2c1`, the IC50 is reported as > 16 µM.

Each molecule was assayed on A253 cell line (assay: cells). Settings: Homo sapiens, A253.
Assay type: functional, cell-based, Homo sapiens
Description: SANGER: Inhibition of human A253 cell growth in a cell viability assay.
For `O=S(=O)(O)c1ccc2cc(/N=N/c3cc(S(=O)(=O)O)c4cccnc4c3O)ccc2c1`, the IC50 was > 16 µM.

These molecules were tested on MZ1-PC (assay: cells). Settings: Homo sapiens, MZ1-PC.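 Further: cell viability assay measuring growth inhibition of human MZ1-PC cells.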
Assay type: functional, cell-based, Homo sapiens
Description: SANGER: Inhibition of human MZ1-PC cell growth in a cell viability assay.
With `O=S(=O)(O)c1ccc2cc(/N=N/c3cc(S(=O)(=O)O)c4cccnc4c3O)ccc2c1` the IC50 was > 16 µM.

Each molecule was assayed on EW-3 (assay: cells). Settings: Homo sapiens, EW-3.
Assay type: functional, cell-based, Homo sapiens
Description: SANGER: Inhibition of human EW-3 cell growth in a cell viability assay.
For `O=S(=O)(O)c1ccc2cc(/N=N/c3cc(S(=O)(=O)O)c4cccnc4c3O)ccc2c1`, the IC50 was > 16 µM.

These molecules were tested on PSN1 (assay: cells). Settings: Homo sapiens, PSN1.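 Further: suppression of growth of human PSN1 cells, read out by a cell viability assay.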
Assay type: functional, cell-based, Homo sapiens
Description: SANGER: Inhibition of human PSN1 cell growth in a cell viability assay.
With `O=S(=O)(O)c1ccc2cc(/N=N/c3cc(S(=O)(=O)O)c4cccnc4c3O)ccc2c1` the IC50 was > 16 µM.

The molecules below were run on NOS-1 (assay: cells). Settings: Homo sapiens, NOS-1.
Assay type: functional, cell-based, Homo sapiens
Description: SANGER: Inhibition of human NOS-1 cell growth in a cell viability assay.
For `O=S(=O)(O)c1ccc2cc(/N=N/c3cc(S(=O)(=O)O)c4cccnc4c3O)ccc2c1`, the IC50 was > 16 µM.

Each molecule was assayed on DSH1 (assay: cells). Settings: Homo sapiens.
Assay type: functional, cell-based
Description: SANGER: Inhibition of human DSH1 cell growth in a cell viability assay.
With `O=S(=O)(O)c1ccc2cc(/N=N/c3cc(S(=O)(=O)O)c4cccnc4c3O)ccc2c1` the IC50 was > 16 µM.

These molecules were tested on KP-N-YS (assay: cells). Settings: Homo sapiens, KP-N-YS.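 Further: cell viability assay measuring inhibition of cell line growth.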
Assay type: functional, cell-based, Homo sapiens
Description: SANGER: Inhibition of human KP-N-YS cell growth in a cell viability assay.
For `O=S(=O)(O)c1ccc2cc(/N=N/c3cc(S(=O)(=O)O)c4cccnc4c3O)ccc2c1`, the IC50 was > 16 µM.

The molecules below were run on RKO (assay: cells). Settings: Homo sapiens, RKO.
Assay type: functional, cell-based, Homo sapiens
Description: SANGER: Inhibition of human RKO cell growth in a cell viability assay.
In the case of `O=S(=O)(O)c1ccc2cc(/N=N/c3cc(S(=O)(=O)O)c4cccnc4c3O)ccc2c1`, the IC50 is reported as > 16 µM.

Each molecule was assayed on ES3 (assay: cells). Settings: Homo sapiens, ES3.
Assay type: functional, cell-based, Homo sapiens
Description: SANGER: Inhibition of human ES3 cell growth in a cell viability assay.
`O=S(=O)(O)c1ccc2cc(/N=N/c3cc(S(=O)(=O)O)c4cccnc4c3O)ccc2c1` was tested, and the IC50 was > 16 µM.

Each molecule was assayed on U-266 (assay: cells). Settings: Homo sapiens, U-266.
Assay type: functional, cell-based, Homo sapiens
Description: SANGER: Inhibition of human U-266 cell growth in a cell viability assay.
In the case of `O=S(=O)(O)c1ccc2cc(/N=N/c3cc(S(=O)(=O)O)c4cccnc4c3O)ccc2c1`, the IC50 is reported as > 16 µM.

The molecules below were run on KU812 cell line (assay: cells). Settings: Homo sapiens, KU812.
Assay type: functional, cell-based, Homo sapiens
Description: SANGER: Inhibition of human KU812 cell growth in a cell viability assay.
For `O=S(=O)(O)c1ccc2cc(/N=N/c3cc(S(=O)(=O)O)c4cccnc4c3O)ccc2c1`, the IC50 was > 16 µM.

What follows are molecules tested on J-RT3-T3-5 (assay: cells). Settings: Homo sapiens, J-RT3-T3-5.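 Further: cell viability assay measuring growth inhibition of human J-RT3-T3-5 cells.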
Assay type: functional, cell-based, Homo sapiens
Description: SANGER: Inhibition of human J-RT3-T3-5 cell growth in a cell viability assay.
For `O=S(=O)(O)c1ccc2cc(/N=N/c3cc(S(=O)(=O)O)c4cccnc4c3O)ccc2c1`, the IC50 was > 16 µM.

These molecules were tested on SW 962 (assay: cells). Settings: Homo sapiens, SW 962.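 Further: growth inhibition of human SW962 cells, read out by a cell viability assay.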
Assay type: functional, cell-based, Homo sapiens
Description: SANGER: Inhibition of human SW962 cell growth in a cell viability assay.
With `O=S(=O)(O)c1ccc2cc(/N=N/c3cc(S(=O)(=O)O)c4cccnc4c3O)ccc2c1` the IC50 was > 16 µM.

The molecules below were run on SK-MEL-2 (assay: cells). Settings: Homo sapiens, SK-MEL-2.
Assay type: functional, cell-based, Homo sapiens
Description: SANGER: Inhibition of human SK-MEL-2 cell growth in a cell viability assay.
With `O=S(=O)(O)c1ccc2cc(/N=N/c3cc(S(=O)(=O)O)c4cccnc4c3O)ccc2c1` the IC50 was > 16 µM.

These molecules were tested on D-263MG (assay: cells). Settings: Homo sapiens, D-263MG.
Assay type: functional, cell-based, Homo sapiens
Description: SANGER: Inhibition of human D-263MG cell growth in a cell viability assay.
With `O=S(=O)(O)c1ccc2cc(/N=N/c3cc(S(=O)(=O)O)c4cccnc4c3O)ccc2c1` the IC50 was > 16 µM.

Each molecule was assayed on LS-411N (assay: cells). Settings: Homo sapiens, LS-411N.
Assay type: functional, cell-based, Homo sapiens
For `O=S(=O)(O)c1ccc2cc(/N=N/c3cc(S(=O)(=O)O)c4cccnc4c3O)ccc2c1`, the IC50 was > 16 µM.

What follows are molecules tested on NCI-H1581 (assay: cells). Settings: Homo sapiens, NCI-H1581.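 Further: cell growth inhibition read out by a viability assay.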
Assay type: functional, cell-based, Homo sapiens
Description: SANGER: Inhibition of human NCI-H1581 cell growth in a cell viability assay.
For `O=S(=O)(O)c1ccc2cc(/N=N/c3cc(S(=O)(=O)O)c4cccnc4c3O)ccc2c1`, the IC50 was > 16 µM.

What follows are molecules tested on BB65-RCC (assay: cells). Settings: Homo sapiens, BB65-RCC.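 Further: growth inhibition of the cell line, measured with a cell viability assay.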
Assay type: functional, cell-based, Homo sapiens
Description: SANGER: Inhibition of human BB65-RCC cell growth in a cell viability assay.
For `O=S(=O)(O)c1ccc2cc(/N=N/c3cc(S(=O)(=O)O)c4cccnc4c3O)ccc2c1`, the IC50 was > 16 µM.

What follows are molecules tested on COLO-824 (assay: cells). Settings: Homo sapiens, COLO-824.
Assay type: functional, cell-based, Homo sapiens
Description: SANGER: Inhibition of human COLO-824 cell growth in a cell viability assay.
`O=S(=O)(O)c1ccc2cc(/N=N/c3cc(S(=O)(=O)O)c4cccnc4c3O)ccc2c1` was tested, and the IC50 was > 16 µM.

What follows are molecules tested on OMC-1 (assay: cells). Settings: Homo sapiens, OMC-1.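 Further: growth inhibition of the OMC-1 cell line, measured by a cell viability assay.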
Assay type: functional, cell-based, Homo sapiens
Description: SANGER: Inhibition of human OMC-1 cell growth in a cell viability assay.
`O=S(=O)(O)c1ccc2cc(/N=N/c3cc(S(=O)(=O)O)c4cccnc4c3O)ccc2c1` was tested, and the IC50 was > 16 µM.

What follows are molecules tested on BT-474 (assay: cells). Settings: Homo sapiens, BT-474.
Assay type: functional, cell-based, Homo sapiens
Description: SANGER: Inhibition of human BT-474 cell growth in a cell viability assay.
For `O=S(=O)(O)c1ccc2cc(/N=N/c3cc(S(=O)(=O)O)c4cccnc4c3O)ccc2c1`, the IC50 was > 16 µM.

The molecules below were run on CGTH-W-1 (assay: cells). Settings: Homo sapiens, CGTH-W-1.
Assay type: functional, cell-based, Homo sapiens
Description: SANGER: Inhibition of human CGTH-W-1 cell growth in a cell viability assay.
In the case of `O=S(=O)(O)c1ccc2cc(/N=N/c3cc(S(=O)(=O)O)c4cccnc4c3O)ccc2c1`, the IC50 is reported as > 16 µM.

These molecules were tested on JVM-3 (assay: cells). Settings: Homo sapiens, JVM-3.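 Further: growth inhibition of human JVM-3 cells, read out with a cell viability assay.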
Assay type: functional, cell-based, Homo sapiens
Description: SANGER: Inhibition of human JVM-3 cell growth in a cell viability assay.
`O=S(=O)(O)c1ccc2cc(/N=N/c3cc(S(=O)(=O)O)c4cccnc4c3O)ccc2c1` was tested, and the IC50 was > 16 µM.

These molecules were tested on TE-11 (assay: cells). Settings: Homo sapiens.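 Further: growth inhibition of human TE-11 cells, read out by a cell viability assay.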
Assay type: functional, cell-based
Description: SANGER: Inhibition of human TE-11 cell growth in a cell viability assay.
`O=S(=O)(O)c1ccc2cc(/N=N/c3cc(S(=O)(=O)O)c4cccnc4c3O)ccc2c1` was tested, and the IC50 was > 16 µM.

What follows are molecules tested on RS4-11 (assay: cells). Settings: Homo sapiens, RS4-11.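 Further: growth inhibition of RS4-11 cells, read out by a cell viability assay.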
Assay type: functional, cell-based, Homo sapiens
Description: SANGER: Inhibition of human RS4-11 cell growth in a cell viability assay.
In the case of `O=S(=O)(O)c1ccc2cc(/N=N/c3cc(S(=O)(=O)O)c4cccnc4c3O)ccc2c1`, the IC50 is reported as > 16 µM.

Each molecule was assayed on NCI-H1092 (assay: cells). Settings: Homo sapiens, NCI-H1092.
Assay type: functional, cell-based, Homo sapiens
Description: SANGER: Inhibition of human NCI-H1092 cell growth in a cell viability assay.
With `O=S(=O)(O)c1ccc2cc(/N=N/c3cc(S(=O)(=O)O)c4cccnc4c3O)ccc2c1` the IC50 was > 16 µM.

These molecules were tested on NCI-H1648 (assay: cells). Settings: Homo sapiens, NCI-H1648.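 Further: cell viability assay measuring inhibition of NCI-H1648 cell growth, from the Sanger screening data.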
Assay type: functional, cell-based, Homo sapiens
Description: SANGER: Inhibition of human NCI-H1648 cell growth in a cell viability assay.
In the case of `O=S(=O)(O)c1ccc2cc(/N=N/c3cc(S(=O)(=O)O)c4cccnc4c3O)ccc2c1`, the IC50 is reported as > 16 µM.

The molecules below were run on TGBC1TKB (assay: cells). Settings: Homo sapiens, TGBC1TKB.
Assay type: functional, cell-based, Homo sapiens
Description: SANGER: Inhibition of human TGBC1TKB cell growth in a cell viability assay.
For `O=S(=O)(O)c1ccc2cc(/N=N/c3cc(S(=O)(=O)O)c4cccnc4c3O)ccc2c1`, the IC50 was > 16 µM.

These molecules were tested on KNS-81-FD (assay: cells). Settings: Homo sapiens, KNS-81-FD.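 Further: growth inhibition of KNS-81-FD cells, read out with a cell viability assay.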
Assay type: functional, cell-based, Homo sapiens
Description: SANGER: Inhibition of human KNS-81-FD cell growth in a cell viability assay.
In the case of `O=S(=O)(O)c1ccc2cc(/N=N/c3cc(S(=O)(=O)O)c4cccnc4c3O)ccc2c1`, the IC50 is reported as > 16 µM.

Each molecule was assayed on KARPAS-299 (assay: cells). Settings: Homo sapiens, KARPAS-299.
Assay type: functional, cell-based, Homo sapiens
Description: SANGER: Inhibition of human KARPAS-299 cell growth in a cell viability assay.
With `O=S(=O)(O)c1ccc2cc(/N=N/c3cc(S(=O)(=O)O)c4cccnc4c3O)ccc2c1` the IC50 was > 16 µM.

Each molecule was assayed on TE-5 (assay: cells). Settings: Homo sapiens, TE-5.
Assay type: functional, cell-based, Homo sapiens
Description: SANGER: Inhibition of human TE-5 cell growth in a cell viability assay.
`O=S(=O)(O)c1ccc2cc(/N=N/c3cc(S(=O)(=O)O)c4cccnc4c3O)ccc2c1` was tested, and the IC50 was > 16 µM.

What follows are molecules tested on ES1 (assay: cells). Settings: Homo sapiens, ES1.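 Further: growth inhibition of ES1 cells, read out with a cell viability assay.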
Assay type: functional, cell-based, Homo sapiens
Description: SANGER: Inhibition of human ES1 cell growth in a cell viability assay.
`O=S(=O)(O)c1ccc2cc(/N=N/c3cc(S(=O)(=O)O)c4cccnc4c3O)ccc2c1` was tested, and the IC50 was > 16 µM.

The molecules below were run on UACC-257 (assay: cells). Settings: Homo sapiens, UACC-257.
Assay type: functional, cell-based, Homo sapiens
Description: SANGER: Inhibition of human UACC-257 cell growth in a cell viability assay.
With `O=S(=O)(O)c1ccc2cc(/N=N/c3cc(S(=O)(=O)O)c4cccnc4c3O)ccc2c1` the IC50 was > 16 µM.

What follows are molecules tested on SNU1 (assay: cells). Settings: Homo sapiens, SNU1.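 Further: growth inhibition of human NCI-SNU-1 cells, measured with a cell viability assay.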
Assay type: functional, cell-based, Homo sapiens
Description: SANGER: Inhibition of human NCI-SNU-1 cell growth in a cell viability assay.
`O=S(=O)(O)c1ccc2cc(/N=N/c3cc(S(=O)(=O)O)c4cccnc4c3O)ccc2c1` was tested, and the IC50 was > 16 µM.

What follows are molecules tested on HCE-4 (assay: cells). Settings: Homo sapiens.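 Further: cell viability assay measuring inhibition of growth in the human HCE-4 cell line.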
Assay type: functional, cell-based
Description: SANGER: Inhibition of human HCE-4 cell growth in a cell viability assay.
`O=S(=O)(O)c1ccc2cc(/N=N/c3cc(S(=O)(=O)O)c4cccnc4c3O)ccc2c1` was tested, and the IC50 was > 16 µM.

Each molecule was assayed on KM12 (assay: cells). Settings: Homo sapiens, KM12.
Assay type: functional, cell-based, Homo sapiens
Description: SANGER: Inhibition of human KM12 cell growth in a cell viability assay.
`O=S(=O)(O)c1ccc2cc(/N=N/c3cc(S(=O)(=O)O)c4cccnc4c3O)ccc2c1` was tested, and the IC50 was > 16 µM.

Each molecule was assayed on KG-1 (assay: cells). Settings: Homo sapiens, KG-1.
Assay type: functional, cell-based, Homo sapiens
Description: SANGER: Inhibition of human KG-1 cell growth in a cell viability assay.
For `O=S(=O)(O)c1ccc2cc(/N=N/c3cc(S(=O)(=O)O)c4cccnc4c3O)ccc2c1`, the IC50 was > 16 µM.

Each molecule was assayed on EW-1 (assay: cells). Settings: Homo sapiens, EW-1.
Assay type: functional, cell-based, Homo sapiens
Description: SANGER: Inhibition of human EW-1 cell growth in a cell viability assay.
With `O=S(=O)(O)c1ccc2cc(/N=N/c3cc(S(=O)(=O)O)c4cccnc4c3O)ccc2c1` the IC50 was > 16 µM.

These molecules were tested on KALS-1 (assay: cells). Settings: Homo sapiens, KALS-1; read-out: IC50.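 Further: growth inhibition of KALS-1 cells, determined with a cell viability assay.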
Assay type: functional, cell-based, Homo sapiens
Description: SANGER: Inhibition of human KALS-1 cell growth in a cell viability assay.
`O=S(=O)(O)c1ccc2cc(/N=N/c3cc(S(=O)(=O)O)c4cccnc4c3O)ccc2c1` was tested, and the IC50 was > 16 µM.

The molecules below were run on NCI-H446 (assay: cells). Settings: Homo sapiens, NCI-H446.
Assay type: functional, cell-based, Homo sapiens
Description: SANGER: Inhibition of human NCI-H446 cell growth in a cell viability assay.
`O=S(=O)(O)c1ccc2cc(/N=N/c3cc(S(=O)(=O)O)c4cccnc4c3O)ccc2c1` was tested, and the IC50 was > 16 µM.

What follows are molecules tested on OCI-AML2 (assay: cells). Settings: Homo sapiens, OCI-AML2.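 Further: growth inhibition of OCI-AML2 cells, read out with a cell viability assay.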
Assay type: functional, cell-based, Homo sapiens
Description: SANGER: Inhibition of human OCI-AML2 cell growth in a cell viability assay.
For `O=S(=O)(O)c1ccc2cc(/N=N/c3cc(S(=O)(=O)O)c4cccnc4c3O)ccc2c1`, the IC50 was > 16 µM.

Each molecule was assayed on MN-60 (assay: cells). Settings: Homo sapiens, MN-60.
Assay type: functional, cell-based, Homo sapiens
Description: SANGER: Inhibition of human MN-60 cell growth in a cell viability assay.
In the case of `O=S(=O)(O)c1ccc2cc(/N=N/c3cc(S(=O)(=O)O)c4cccnc4c3O)ccc2c1`, the IC50 is reported as > 16 µM.

What follows are molecules tested on KY821 (assay: cells). Settings: Homo sapiens, KY821.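 Further: growth inhibition of human KY821 cells, read out by a cell viability assay.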
Assay type: functional, cell-based, Homo sapiens
Description: SANGER: Inhibition of human KY821 cell growth in a cell viability assay.
With `O=S(=O)(O)c1ccc2cc(/N=N/c3cc(S(=O)(=O)O)c4cccnc4c3O)ccc2c1` the IC50 was > 16 µM.

Each molecule was assayed on NCI-H526 (assay: cells). Settings: Homo sapiens, NCI-H526.
Assay type: functional, cell-based, Homo sapiens
Description: SANGER: Inhibition of human NCI-H526 cell growth in a cell viability assay.
`O=S(=O)(O)c1ccc2cc(/N=N/c3cc(S(=O)(=O)O)c4cccnc4c3O)ccc2c1` was tested, and the IC50 was > 16 µM.

The molecules below were run on D-247MG (assay: cells). Settings: Homo sapiens.
Assay type: functional, cell-based
Description: SANGER: Inhibition of human D-247MG cell growth in a cell viability assay.
With `O=S(=O)(O)c1ccc2cc(/N=N/c3cc(S(=O)(=O)O)c4cccnc4c3O)ccc2c1` the IC50 was > 16 µM.

The molecules below were run on NCI-H1770 (assay: cells). Settings: Homo sapiens, NCI-H1770.
Assay type: functional, cell-based, Homo sapiens
Description: SANGER: Inhibition of human NCI-H1770 cell growth in a cell viability assay.
With `O=S(=O)(O)c1ccc2cc(/N=N/c3cc(S(=O)(=O)O)c4cccnc4c3O)ccc2c1` the IC50 was > 16 µM.

What follows are molecules tested on LU-134-A (assay: cells). Settings: Homo sapiens, LU-134-A.
Assay type: functional, cell-based, Homo sapiens
Description: SANGER: Inhibition of human LU-134-A cell growth in a cell viability assay.
In the case of `O=S(=O)(O)c1ccc2cc(/N=N/c3cc(S(=O)(=O)O)c4cccnc4c3O)ccc2c1`, the IC50 is reported as > 16 µM.

The molecules below were run on LC-2-ad (assay: cells). Settings: Homo sapiens, LC-2-ad.
Assay type: functional, cell-based, Homo sapiens
Description: SANGER: Inhibition of human LC-2-ad cell growth in a cell viability assay.
`O=S(=O)(O)c1ccc2cc(/N=N/c3cc(S(=O)(=O)O)c4cccnc4c3O)ccc2c1` was tested, and the IC50 was > 16 µM.
